Laboratory results from patent publication US7235649B2, “Isolated GRP94 ligand binding domain polypeptide and nucleic acid encoding same, and screening methods employing same” (Duke University, priority 2000, dated 2007).

Columns and labels:
[1] = target: T1, GRP94 (Sus scrofa, UniProt Q29092); type: biochemical, porcine; parameters: GRP94 was purified from porcine pancreas rough microsomes; from tissue; host or cells: porcine pancreas rough microsomes; conditions: bis-ANS treated GRP94, ten-fold molar excess [125I]-VSV8, 30 min at 37° C.
[2] = target: T1, GRP94; assay: Blue native polyacrylamide gel electrophoresis (oligomeric state); type: biochemical, porcine; parameters: GRP94 was purified from porcine pancreas rough microsomes; from tissue; host or cells: porcine pancreas rough microsomes; conditions: ten-fold molar excess of bis-ANS
Method: Native Blue Electrophoresis. The oligomeric state of GRP94 was assayed by blue native polyacrylamide gel electrophoresis (BN-PAGE) as described by Schagger et al. (1994) Anal Biochem 217:220–230. GRP94 was either heat shocked or exposed to a 10-fold molar excess of bis-ANS for the indicated times. Samples were then dissolved in 15% glycerol and loaded onto 5–18% gradient gels with 0.02% Coomassie Brilliant Blue in the cathode buffer. Gels were run at 4° C., stained with Coomassie Blue, de-stained and dried.
When purified from tissue, GRP94 exists as a homodimer, as described by Wearsch & Nicchitta (1996a) Prot Express Purif 7(1):114–21; Nemoto et al. (1996) J Biochem 120:249–256. Following heat shock however, GRP94 forms higher molecular weight complexes, as described by Wearsch et al. (1998) Biochemistry 37:5709–5719. To further characterize the effects of bis-ANS on GRP94 structure, the oligomerization states of native, heat shocked and bis-ANS treated GRP94 were assayed by the blue native polyacrylamide gel electrophoresis (BN-PAGE) technique described by Schagger et al. (1994). In these experiments, GRP94 was incubated with bis-ANS or briefly heat shocked and subsequently incubated at 37° C. The samples were then analyzed by BN-PAGE. […] However, exposure to heat shock causes a relatively rapid formation of tetramers, hexamers, and octamers (FIG. 4, lanes 2–4).

[3] = system: HSP90; assay: Conformational analysis by tryptic proteolysis and SDS-PAGE; type: biochemical; conditions: bis-ANS treatment
Method: Conformational Analysis by Proteolysis. […] Samples were then combined with 0.1% trypsin and digested for 30 minutes at 37° C. An equal volume of SDS-PAGE sample buffer was added and the samples were snap frozen in liquid nitrogen. Immediately prior to gel analysis, samples were thawed and boiled for 5 minutes. […] Gels were fixed and stained with Coomassie Blue.

[4] = target: T1, GRP94; assay: Citrate synthase thermal aggregation assay (GRP94 chaperone activity); type: biochemical, porcine; parameters: GRP94 was purified from porcine pancreas rough microsomes; from tissue; host or cells: porcine pancreas rough microsomes; conditions: 1 μM GRP94 preincubated two hours with 10 μM bis-ANS, 0.15 μM citrate synthase, 43° C.
Method: Citrate Synthase Aggregation Assays. The effects of GRP94 on the thermal aggregation of citrate synthase were assayed by the methods described by Buchner et al. (1998) Methods Enzymol 290:323–338. Samples containing no protein, or GRP94 (1 μM), were incubated in 40 mM HEPES pH 7.5 for two hours at 37° C. with either 0.2% DMF or 10 μM bis-ANS. The samples were then warmed to 43° C. for five minutes and placed in a spectrofluorometer thermostatted at 43° C. Citrate synthase was then added to 0.15 μM final concentration and the thermal aggregation of the enzyme followed by light scattering. Excitation and emission wavelengths were both 500 nm with 2 nm slit width. The time course of citrate synthase aggregation was followed for 1000 seconds.
To determine if the bis-ANS-dependent conformational changes in GRP94 were of functional significance, the molecular chaperone activities of native, heat shocked and bis-ANS treated GRP94 were evaluated in a thermal aggregation assay, as described by Jakob et al. (1995) J Biol Chem 270:7288–7294 and Buchner et al. (1998) Methods Enzymol 290:323–338. […] Following experimental treatment of the GRP94, reactions were equilibrated at 43° C., citrate synthase then added and aggregation, as represented by light scattering, was measured.

[5] = target: T1, GRP94; assay: Conformational analysis by tryptic proteolysis and SDS-PAGE; type: biochemical, porcine; parameters: GRP94 was purified from porcine pancreas rough microsomes; from tissue; host or cells: porcine pancreas rough microsomes; conditions: 5 μM GRP94, 50 μM bis-ANS one hour at 37° C., 0.1% trypsin
[6] = target: T1, GRP94; assay: Identification of the bis-ANS binding site by photo-crosslinking, trypsin digestion and Edman sequencing; parameters: GRP94 was purified from porcine pancreas rough microsomes; from tissue; host or cells: porcine pancreas rough microsomes; species or system porcine; conditions: 50 μM bis-ANS photo-crosslinked 15 minutes on ice
[7] = target: T1, GRP94; assay: Far-UV circular dichroism; type: biochemical, porcine; parameters: GRP94 was purified from porcine pancreas rough microsomes; from tissue; host or cells: porcine pancreas rough microsomes; conditions: 1 μM GRP94, 10 μM bis-ANS 2 hours
Method: Circular Dichroism Measurements. Far-UV CD spectrometry was performed on an AVIV Associates 62DS™ circular dichroism spectrometer (AVIV Associates of Lakewood, N.J.). Samples were analyzed in a 1 mm path length quartz cuvette at 37° C. GRP94 samples (1 μM) were prepared in standard phosphate buffered saline solution as buffer A produced unacceptable dynode voltages in the relevant region of the spectrum. GRP94 was incubated with 10 μM bis-ANS for 2 hours at 37° C. prior to obtaining spectra. Spectra were recorded from 300 to 195 nm. The α-helical content of GRP94 was calculated from the molar ellipticity at 222 nm. See Myers & Jakoby (1975) J Biol Chem 250:3785–3789.
To gain further insight into the nature of the bis-ANS dependent conformational change, GRP94 was subjected to heat shocked or treated with bis-ANS and far-UV CD spectra obtained (FIG. 5).

[8] = target: T1, GRP94; assay: Fluorophore binding reactions with native or heat shocked GRP94 (fluorescence emission); conditions: for fluorophore binding to native GRP94: 0.5 μM native GRP94, 5 μM probe, 30 min at 37° C.; for fluorophore binding to heat shocked GRP94: 0.5 μM GRP94 heat shocked 15 minutes at 50° C., 5 μM probe
[9] = target: N-terminal nucleotide binding pocket of Hsp90 (Saccharomyces cerevisiae, UniProt P02829); conditions: cited from earlier work
[10] = target: T1, GRP94; assay: Tryptophan fluorescence (ligand-induced conformational change); conditions: 50 μM NECA, 50 μM geldanamycin, 2.5 mM ATP or 2.5 mM ADP, 1 hour at 37° C.
Method: Tryptophan Fluorescence. Tryptophan fluorescence measurements were conducted in a FLUOROMAX™ spectrofluorometer (Spex Industries, Inc. of Edison, N.J.) with the slit widths set to 1 nm for both excitation and emission. […] All spectra were corrected by subtraction of buffer or buffer plus ligand samples. […] Samples were then cooled to room temperature, transferred to a quartz cuvette, and the spectra collected.

[11] = target: T1, GRP94; assay: [3H]-NECA competitive displacement assay; type: binding, porcine; parameters: GRP94 was purified from porcine pancreas rough microsomes; from tissue; host or cells: porcine pancreas rough microsomes; conditions: for competition with [3H]-NECA for binding to GRP94 (adenosine ligands) / nucleoside base specificity: binding by [3H]-NECA competitive displacement: 20 nM [3H]-NECA; for competition with [3H]-NECA for binding to GRP94 (adenosine ligands): nominal (80 μM) Mg2+; for effect of excess Mg2+ on binding to GRP94: 10 mM Mg(OAc)2 vs nominal endogenous magnesium; for nucleoside base specificity: binding by [3H]-NECA competitive displacement: competitors all at 50 μM
[12] = target: T1, GRP94; assay: GRP94 autophosphorylation assay; type: biochemical, porcine; parameters: GRP94 was purified from porcine pancreas rough microsomes; from tissue; host or cells: porcine pancreas rough microsomes; conditions: 180 μM NECA or 180 μM radicicol in 3.6% DMSO, 5 μg/ml heparin, 5 mM GTP; 1 hour 37° C.
Method: (§1) Phosphorylation Assays. […] For the casein kinase assay, 1 unit of casein kinase 11 was incubated as described above, with the addition of 4 μM casein. […] The 25 μl reaction mixtures were incubated at 37° C. for 1 hour and quenched by addition of 10% trichloroacetic acid. Samples were analyzed by 10% SDS-PAGE gels and the phosphorylated species were quantitated using a Fuji MACBAS1000™ phosphorimaging system (Fuji Medical Systems of Stamford, Conn.).

[13] = target: casein kinase II (Homo sapiens, UniProt P68400); assay: Casein kinase II assay with casein; type: biochemical; conditions: 180 μM NECA or 180 μM radicicol in 3.6% DMSO, 5 μg/ml heparin, 5 mM GTP; 4 μM casein
Method: as §1

T1 sequence (Q29092 22-804): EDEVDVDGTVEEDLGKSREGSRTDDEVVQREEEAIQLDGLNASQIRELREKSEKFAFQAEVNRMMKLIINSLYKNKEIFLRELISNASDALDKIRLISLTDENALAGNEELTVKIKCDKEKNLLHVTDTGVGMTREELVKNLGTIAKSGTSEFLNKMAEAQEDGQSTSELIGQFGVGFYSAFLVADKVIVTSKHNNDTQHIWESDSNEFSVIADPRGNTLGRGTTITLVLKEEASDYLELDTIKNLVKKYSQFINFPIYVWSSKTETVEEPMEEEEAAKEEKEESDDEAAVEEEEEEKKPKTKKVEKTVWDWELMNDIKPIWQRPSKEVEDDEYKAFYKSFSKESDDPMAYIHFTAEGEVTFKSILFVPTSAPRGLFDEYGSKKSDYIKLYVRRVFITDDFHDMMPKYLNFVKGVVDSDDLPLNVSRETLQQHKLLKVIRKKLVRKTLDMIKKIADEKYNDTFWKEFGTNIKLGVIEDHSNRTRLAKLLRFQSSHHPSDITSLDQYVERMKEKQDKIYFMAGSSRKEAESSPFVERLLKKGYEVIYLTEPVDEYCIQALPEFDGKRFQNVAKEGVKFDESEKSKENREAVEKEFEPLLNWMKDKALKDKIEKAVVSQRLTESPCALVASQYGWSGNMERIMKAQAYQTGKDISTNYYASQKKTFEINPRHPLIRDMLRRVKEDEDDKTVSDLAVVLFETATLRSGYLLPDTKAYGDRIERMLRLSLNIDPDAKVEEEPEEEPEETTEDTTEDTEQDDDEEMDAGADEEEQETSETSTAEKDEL
Chain of casein kinase II (P68400 whole entry): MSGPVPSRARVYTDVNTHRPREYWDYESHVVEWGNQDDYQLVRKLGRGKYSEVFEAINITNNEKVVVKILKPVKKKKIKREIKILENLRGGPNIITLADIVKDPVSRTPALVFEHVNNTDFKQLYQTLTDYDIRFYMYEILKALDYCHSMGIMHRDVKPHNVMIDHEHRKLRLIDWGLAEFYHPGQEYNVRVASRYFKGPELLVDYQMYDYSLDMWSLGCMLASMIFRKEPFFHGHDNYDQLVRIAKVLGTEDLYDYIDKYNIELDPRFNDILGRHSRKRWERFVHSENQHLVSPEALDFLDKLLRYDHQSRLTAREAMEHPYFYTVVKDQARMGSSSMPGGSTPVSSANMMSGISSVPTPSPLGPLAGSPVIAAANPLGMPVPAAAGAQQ
Chain of casein kinase II (P67870 whole entry partner): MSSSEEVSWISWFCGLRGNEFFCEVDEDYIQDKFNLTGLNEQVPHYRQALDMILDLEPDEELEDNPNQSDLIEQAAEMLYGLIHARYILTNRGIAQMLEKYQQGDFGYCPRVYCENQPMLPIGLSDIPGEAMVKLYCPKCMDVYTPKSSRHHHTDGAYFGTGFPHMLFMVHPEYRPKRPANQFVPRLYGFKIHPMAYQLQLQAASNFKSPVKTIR
Chain of N-terminal nucleotide binding pocket of Hsp90 (P02829 whole entry): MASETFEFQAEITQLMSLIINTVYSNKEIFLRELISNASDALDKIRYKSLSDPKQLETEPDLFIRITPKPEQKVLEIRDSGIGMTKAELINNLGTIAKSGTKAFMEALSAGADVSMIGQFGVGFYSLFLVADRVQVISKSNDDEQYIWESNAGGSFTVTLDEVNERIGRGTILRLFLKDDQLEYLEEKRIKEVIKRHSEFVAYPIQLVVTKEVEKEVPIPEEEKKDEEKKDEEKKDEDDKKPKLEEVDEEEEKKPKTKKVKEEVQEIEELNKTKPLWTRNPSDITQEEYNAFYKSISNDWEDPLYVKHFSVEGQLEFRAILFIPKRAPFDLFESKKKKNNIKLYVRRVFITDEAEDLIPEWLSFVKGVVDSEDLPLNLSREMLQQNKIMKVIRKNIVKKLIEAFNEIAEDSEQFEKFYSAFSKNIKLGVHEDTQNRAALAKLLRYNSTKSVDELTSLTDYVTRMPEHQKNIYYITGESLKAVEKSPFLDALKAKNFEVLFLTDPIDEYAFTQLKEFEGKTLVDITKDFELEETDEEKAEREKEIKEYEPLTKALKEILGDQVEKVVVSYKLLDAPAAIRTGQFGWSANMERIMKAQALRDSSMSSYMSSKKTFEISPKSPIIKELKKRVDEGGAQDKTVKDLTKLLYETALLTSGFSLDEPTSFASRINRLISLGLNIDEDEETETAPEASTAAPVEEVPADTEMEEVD

## 4,4′-dianilino-1,1-binaphthyl-5,5-disulfonic acid [bis-ANS]
[1]
  stimulation of GRP94 peptide binding activity over native protein: four to five-fold
[2]
  GRP94 quaternary structure (oligomerization): induces changes in the quaternary structure of GRP94 that mimic those seen upon heat shock
[3]
  trypsin proteolysis pattern of HSP90 (conformation): Essentially identical proteolysis patterns were observed following either heat shock or bis-ANS treatment of HSP90
[4]
  citrate synthase thermal aggregation in presence of compound-treated GRP94: no thermal aggregation of citrate synthase was detectable
[5]
  trypsin proteolysis pattern of GRP94 (conformation): substantially reduced recovery of the prominent proteolysis products
[6]
  site of bis-ANS binding to GRP94: residues 271–281 of the N-terminal domain of GRP94
[7]
  GRP94 secondary structure (CD spectra): does not alter GRP94 secondary structure
[8]
  fluorophore binding to native GRP94: bi-phasic
[8]; heat shocked GRP94
  saturability of bis-ANS binding: binds in a saturable manner to heat shocked GRP94
[8]; heat shocked GRP94, fixed bis-ANS 50 nM
  near maximal bis-ANS binding, molar excess of GRP94 monomer over bis-ANS: 20 -fold molar excess
[8]; native GRP94, extended incubation (20 hours)
  bis-ANS binding to native GRP94 following extended incubations: a level of fluorophore binding similar to that seen with heat shocked GRP94 was observed
[8]; read-out: half maximal binding of bis-ANS to heat shocked GRP94, fixed bis-ANS 50 nM, increasing heat shocked GRP94, emission 475 nm
  Kd: 110 nM

## O=S(=O)(O)c1cccc2cccc(Nc3ccccc3)c12 [8-ANS, 1,8-anilinonaphthalenesulfonate]
[8]
  fluorophore binding to heat shocked GRP94: binds avidly following heat shock
  fluorophore binding to native GRP94: weak interactions with native GRP94

## Nc1ncnc2c1ncn2[C@@H]1O[C@H](COP(=O)(O)OP(=O)(O)O)[C@@H](O)[C@H]1O [ADP]
[9]; Prodromou et al. (1997)
  affinity of N-terminal domain of Hsp90 for ADP relative to ATP: four-fold higher affinity than that observed for ATP
[10]
  change of GRP94 tryptophan fluorescence: the tryptophan fluorescence was decreased
[11]
  competition with [3H]-NECA for binding to GRP94 (adenosine ligands): effectively competed
  effect of excess Mg2+ on binding to GRP94: markedly stimulated
[11]; FIGS. 10A–10C
  extent of competition of NECA binding to GRP94: wholly competed
[11]; excess Mg2+
  relative affinities for GRP94 in presence of Mg2+: nearly identical relative affinities

## Nc1ncnc2c1ncn2[C@@H]1O[C@H](COP(=O)(O)O)[C@@H](O)[C@H]1O [AMP]
[11]
  competition with [3H]-NECA for binding to GRP94 (adenosine ligands): effectively competed
  effect of excess Mg2+ on binding to GRP94: markedly stimulated

## Nc1ccn([C@@H]2O[C@H](COP(=O)(O)OP(=O)(O)OP(=O)(O)O)[C@@H](O)[C@H]2O)c(=O)n1 [CTP]
[11]
  nucleoside base specificity: binding by [3H]-NECA competitive displacement: little to no binding

## Nc1nc2c(ncn2[C@@H]2O[C@H](COP(=O)(O)OP(=O)(O)OP(=O)(O)O)[C@@H](O)[C@H]2O)c(=O)[nH]1 [GTP]
[12]
  effect on GRP94 autophosphorylation activity: markedly attenuated
[11]
  nucleoside base specificity: binding by [3H]-NECA competitive displacement: little to no binding
[13]
  effect on casein kinase II activity: markedly attenuated

## CCC(=O)c1ccc2cc(N(C)C)ccc2c1 [Prodan, 6-propionyl-2-(dimethylamino)naphthalene]
[8]
  fluorophore binding to heat shocked GRP94: does not interact with the hydrophobic binding pocket(s) displayed by heat shocked GRP94

## O=c1ccn([C@@H]2O[C@H](COP(=O)(O)OP(=O)(O)OP(=O)(O)O)[C@@H](O)[C@H]2O)c(=O)[nH]1 [UTP]
[11]
  nucleoside base specificity: binding by [3H]-NECA competitive displacement: little to no binding

## Nc1ncnc2c1ncn2[C@@H]1O[C@H](CO)[C@@H](O)[C@H]1O [adenosine]
[11]
  competition with [3H]-NECA for binding to GRP94 (adenosine ligands): relative displacement activity approximating that observed for ADP
  effect of excess Mg2+ on binding to GRP94: without effect

## Nc1ncnc2c1ncn2[C@H]1C[C@H](O)[C@@H](COP(=O)(O)OP(=O)(O)OP(=O)(O)O)O1 [deoxyATP]
[11]
  nucleoside base specificity: binding by [3H]-NECA competitive displacement: could bind

## C[C@@H]1C[C@H]2O[C@@H]2/C=C\C=C\C(=O)Cc2c(Cl)c(O)cc(O)c2C(=O)O1 [radicicol]
[9]; Roe et al. (1999)
  binding stoichiometry of radicicol to Hsp90: 2 mol radicicol/mol Hsp90 dimer
[13]
  effect on casein kinase II activity: neither NECA nor radicicol, both of which bind to the N-terminal nucleotide binding domain of GRP94, significantly inhibit GRP94 derived or casein kinase II activity

## heparin
[12]
  effect on GRP94 autophosphorylation activity: markedly attenuated
[13]
  effect on casein kinase II activity: markedly attenuated
